Where two headings read alike, the source gives them in different places.
What was measured:
[1] = test system: CD69 expression on CD19+ B cells in human whole blood; experiment: In vitro whole blood CD69 assay; type: cell-based; conditions: B-cell
[2] = target: BTK (Homo sapiens (Human), UniProt Q06187); experiment: In vitro BTK kinase assay: Btk-PolyGAT-LS assay; type: biochemical; conditions: ATP 10 μM, polyGAT 100 nM, BTK 0.25 nM, 30 minutes
[3] = Whole Blood CD69 inhibition, human heparinized blood, anti-human IgD stimulation, CD19+ B cells expressing CD69, read-out: IC50

BTK, sequence (Q06187 whole entry): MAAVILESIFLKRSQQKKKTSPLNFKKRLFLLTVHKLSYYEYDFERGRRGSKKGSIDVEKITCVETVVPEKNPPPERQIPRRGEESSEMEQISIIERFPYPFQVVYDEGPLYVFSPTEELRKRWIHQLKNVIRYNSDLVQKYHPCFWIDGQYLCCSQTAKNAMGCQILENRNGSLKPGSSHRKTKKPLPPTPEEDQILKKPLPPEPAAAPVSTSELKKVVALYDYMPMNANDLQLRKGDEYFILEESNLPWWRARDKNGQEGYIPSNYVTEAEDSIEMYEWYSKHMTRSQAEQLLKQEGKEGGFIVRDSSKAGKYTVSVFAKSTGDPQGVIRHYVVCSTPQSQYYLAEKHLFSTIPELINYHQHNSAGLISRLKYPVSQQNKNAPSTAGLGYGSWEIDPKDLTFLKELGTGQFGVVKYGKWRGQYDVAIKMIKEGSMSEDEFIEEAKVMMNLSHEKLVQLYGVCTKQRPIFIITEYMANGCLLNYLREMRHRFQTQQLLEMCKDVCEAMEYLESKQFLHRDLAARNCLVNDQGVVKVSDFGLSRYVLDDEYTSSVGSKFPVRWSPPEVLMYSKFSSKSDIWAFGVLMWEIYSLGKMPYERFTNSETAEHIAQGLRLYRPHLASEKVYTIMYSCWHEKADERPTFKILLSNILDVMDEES

SMILES	IC50 ([1]; Homo sapiens) [µM]	IC50 [2] [µM]	IC50 [1, 3] [µM]
C=CC(=O)N(C)CCOc1c(N)ncnc1-c1ccc(CNC(=O)c2nnc(C(C)(C)C)o2)c(C)c1 [Example 1, N-(4-(6-amino-5-(2-(N-methylacrylamido)ethoxy)pyrimidin-4-yl)-2-methylbenzyl)-5-(tert-butyl)-1,3,4-oxadiazole-2-carboxamide]	< 0.1	< 0.001	–
C=CC(=O)N(C)CCOc1c(N)ncnc1-c1ccc(CNC(=O)c2noc(C(C)(C)C)n2)c(C)c1 [Example 2, N-(4-(6-amino-5-(2-(N-methylacrylamido)ethoxy)pyrimidin-4-yl)-2-methylbenzyl)-5-(tert-butyl)-1,2,4-oxadiazole-3-carboxamide]	< 0.1	< 0.001	–
C=CC(=O)N(C)CCOc1cncnc1-c1ccc(CNC(=O)c2noc(C(C)(C)C)n2)c(C)c1 [Example 3, 5-(tert-butyl)-N-(2-methyl-4-(5-(2-(N-methylacrylamido)ethoxy)-pyrimidin-4-yl)benzyl)-1,2,4-oxadiazole-3-carboxamide]	–	< 0.001	< 0.1
C=CC(=O)N(C)CCOc1cnccc1-c1ccc(CNC(=O)c2noc(C(C)(C)C)n2)c(C)c1 [Example 4, 5-(tert-butyl)-N-(2-methyl-4-(3-(2-(N-methylacrylamido)ethoxy)pyridin-4-yl)benzyl)-1,2,4-oxadiazole-3-carboxamide]	–	< 0.001	< 0.1
C=CC(=O)N(C)CCOc1cnccc1-c1ccc(CNC(=O)c2noc(C(C)(C)C)n2)c(C)c1F [Example 5, 5-(tert-butyl)-N-(3-fluoro-2-methyl-4-(3-(2-(N-methylacrylamido)ethoxy)pyridin-4-yl)benzyl)-1,2,4-oxadiazole-3-carboxamide]	–	< 0.001	< 0.1
C=CC(=O)N(C)CCOc1c(N)ncnc1-c1ccc(CN2CCc3c(cnn3C(C)(C)C)C2=O)c(C)c1 [Example 6, N-(2-((4-amino-6-(4-((1-(tert-butyl)-4-oxo-1,4,6,7-tetrahydro-5H-pyrazolo[4,3-c]pyridin-5-yl)methyl)-3-methylphenyl)pyrimidin-5-yl)oxy)ethyl)-N-methylacrylamide]	–	< 0.001	< 0.1
C=CC(=O)N(C)CCOc1c(N)ncnc1-c1ccc(CNC(=O)c2nc(C(C)(C)C)no2)c(C)c1 [Example 7, N-(4-(6-amino-5-(2-(N-methylacrylamido)ethoxy)pyrimidin-4-yl)-2-methylbenzyl)-3-(tert-butyl)-1,2,4-oxadiazole-5-carboxamide]	–	< 0.001	< 0.1
C=CC(=O)N(C)CCOc1c(N)ncnc1-c1ccc(CNC(=O)c2cn(C(C)(C)C)nn2)c(C)c1 [Example 8, N-(4-(6-amino-5-(2-(N-methylacrylamido)ethoxy)pyrimidin-4-yl)-2-methylbenzyl)-1-(tert-butyl)-1H-1,2,3-triazole-4-carboxamide]	–	< 0.001	< 0.1
C=CC(=O)N(C)CCOc1c(N)ncnc1-c1ccc(CN2CCN(CC(C)(C)C)CC2=O)c(C)c1 [Example 9, N-(2-((4-amino-6-(3-methyl-4-((4-neopentyl-2-oxopiperazin-1-yl)methyl)phenyl)pyrimidin-5-yl)oxy)ethyl)-N-methylacrylamide]	–	< 0.001	< 0.1
C=CC(=O)N(C)CCOc1c(N)ncnc1-c1ccc(CNC(=O)c2cnn(C(C)(C)C)c2)c(C)c1 [Example 10, N-(4-(6-amino-5-(2-(N-methylacrylamido)ethoxy)pyrimidin-4-yl)-2-methylbenzyl)-1-(tert-butyl)-1H-pyrazole-4-carboxamide]	–	< 0.001	< 0.1
C=CC(=O)N(C)CCOc1c(N)ncnc1-c1ccc(CN2Cc3cc(C4CC4)sc3C2=O)c(C)c1 [Example 11, N-(2-((4-amino-6-(4-((2-cyclopropyl-6-oxo-4,6-dihydro-5H-thieno[2,3-c]pyrrol-5-yl)methyl)-3-methylphenyl)pyrimidin-5-yl)oxy)ethyl)-N-methylacrylamide]	–	< 0.001	0.1 to 1
C=CC(=O)N(C)CCOc1cnccc1-c1ccc(CN2CCc3c(cnn3C(C)(C)C)C2=O)c(C)c1 [Example 12, N-(2-((4-(4-((1-(tert-butyl)-4-oxo-1,4,6,7-tetrahydro-5H-pyrazolo[4,3-c]pyridin-5-yl)methyl)-3-methylphenyl)pyridin-3-yl)oxy)ethyl)-N-methylacrylamide]	–	< 0.001	0.1 to 1
C=CC(=O)N1CCCC[C@@H]1C(=O)Nc1cnccc1-c1ccc(CNC(=O)c2noc(C(C)(C)C)n2)c(C)c1 [Example 31, (R)-N-(4-(3-(1-acryloylpiperidine-2-carboxamido)pyridin-4-yl)-2-methylbenzyl)-5-(tert-butyl)-1,2,4-oxadiazole-3-carboxamide]	–	< 0.001	< 0.1
C=CC(=O)N1CCCC[C@H]1C(=O)Nc1cnccc1-c1ccc(CNC(=O)c2noc(C(C)(C)C)n2)c(C)c1 [Example 32, (S)-N-(4-(3-(1-acryloylpiperidine-2-carboxamido)pyridin-4-yl)-2-methylbenzyl)-5-(tert-butyl)-1,2,4-oxadiazole-3-carboxamide]	–	< 0.001	< 0.1
C=CC(=O)N1CC(Oc2cnccc2-c2ccc(CNC(=O)c3cn(C(C)(C)C)nn3)c(C)c2)C1 [Example 33, N-(4-(3-((1-acryloylazetidin-3-yl)oxy)pyridin-4-yl)-2-methylbenzyl)-1-(tert-butyl)-1H-1,2,3-triazole-4-carboxamide]	> 1	0.001 to 0.01	–
C=CC(=O)N1CCC(Oc2cnccc2-c2ccc(CNC(=O)c3cn(C(C)(C)C)nn3)c(C)c2)CC1 [Example 37, N-(4-(3-((1-acryloylpiperidin-4-yl)oxy)pyridin-4-yl)-2-methylbenzyl)-1-(tert-butyl)-1H-1,2,3-triazole-4-carboxamide]	–	< 0.001	> 1
C=CC(=O)N1CCCC(Oc2cnccc2-c2ccc(CNC(=O)c3cn(C(C)(C)C)nn3)c(C)c2)C1 (centres unmarked) [Example 38, N-(4-(3-((1-acryloylpiperidin-3-yl)oxy)pyridin-4-yl)-2-methylbenzyl)-1-(tert-butyl)-1H-1,2,3-triazole-4-carboxamide]	–	> 0.01	> 1
C=CC(=O)N1CCCC(Oc2cncnc2-c2ccc(CNC(=O)c3cn(C(C)(C)C)nn3)c(C)c2)C1 (centres unmarked) [Example 39, N-(4-(5-((1-acryloylpiperidin-3-yl)oxy)pyrimidin-4-yl)-2-methylbenzyl)-1-(tert-butyl)-1H-1,2,3-triazole-4-carboxamide]	–	> 0.01	> 1
Cc1cc(-c2ccncc2OC2CN(C(=O)/C=C/CN(C)C)C2)ccc1CNC(=O)c1cn(C(C)(C)C)nn1 [Example 40, (E)-1-(tert-butyl)-N-(4-(3-((1-(4-(dimethylamino)but-2-enoyl)azetidin-3-yl)oxy)pyridin-4-yl)-2-methylbenzyl)-1H-1,2,3-triazole-4-carboxamide]	–	> 0.01	> 1
Cc1cc(-c2ccncc2OC2CCN(C(=O)/C=C/CN(C)C)C2)ccc1CNC(=O)c1cn(C(C)(C)C)nn1 (centres unmarked) [Example 41, (E)-1-(tert-butyl)-N-(4-(3-((1-(4-(dimethylamino)but-2-enoyl)pyrrolidin-3-yl)oxy)pyridin-4-yl)-2-methylbenzyl)-1H-1,2,3-triazole-4-carboxamide]	–	> 0.01	> 1
Cc1cc(-c2ccncc2OC2CCN(C(=O)/C=C/CN(C)C)CC2)ccc1CNC(=O)c1cn(C(C)(C)C)nn1 [Example 42, (E)-1-(tert-butyl)-N-(4-(3-((1-(4-(dimethylamino)but-2-enoyl)piperidin-4-yl)oxy)pyridin-4-yl)-2-methylbenzyl)-1H-1,2,3-triazole-4-carboxamide]	–	< 0.001	0.1 to 1
C#CC(=O)N1CCC(Oc2cnccc2-c2ccc(CNC(=O)c3cn(C(C)(C)C)nn3)c(C)c2)C1 (centres unmarked) [Example 43, 1-(tert-butyl)-N-(2-methyl-4-(3-((1-propioloylpyrrolidin-3-yl)oxy)pyridin-4-yl)benzyl)-1H-1,2,3-triazole-4-carboxamide]	–	0.001 to 0.01	> 1
C#CC(=O)N1CCC(Oc2cnccc2-c2ccc(CNC(=O)c3cn(C(C)(C)C)nn3)c(C)c2)CC1 [Example 44, 1-(tert-butyl)-N-(2-methyl-4-(3-((1-propioloylpiperidin-4-yl)oxy)pyridin-4-yl)benzyl)-1H-1,2,3-triazole-4-carboxamide]	–	< 0.001	> 1
C=CC(=O)N1CCCC1COc1cnccc1-c1ccc(CNC(=O)c2cn(C(C)(C)C)nn2)c(C)c1F (centres unmarked) [Example 49, N-(4-(3-((1-acryloylpyrrolidin-2-yl)methoxy)pyridin-4-yl)-3-fluoro-2-methylbenzyl)-1-(tert-butyl)-1H-1,2,3-triazole-4-carboxamide]	–	0.001 to 0.01	> 1
C=CS(=O)(=O)N1CCCC1COc1cnccc1-c1ccc(CNC(=O)c2cn(C(C)(C)C)nn2)c(C)c1F (centres unmarked) [Example 50, 1-(tert-butyl)-N-(3-fluoro-2-methyl-4-(3-((1-(vinylsulfonyl)pyrrolidin-2-yl)methoxy)pyridin-4-yl)benzyl)-1H-1,2,3-triazole-4-carboxamide]	–	< 0.001	> 1
